Measurements from PubChem BioAssay AID1963425 (Molecular Pharmacology Branch, DTP, NCI, 2024).
Several values for one entry are separate records, joined by “and”; a condition that tells them apart may be missing. Identical values can stand only once.

Test system: 323965-272-R-J2-PDC complex spheroid growth, % test/control
Experiment: Anticancer human tumor 323965-272-R-J2-PDC patient-derived pancreatic carcinoma cell line growth inhibition [Asc]
Conditions: for viability, T/C: stronger effect = lower value; active = viability on the fitted dose curve at most 10% of control; inactive = the rest
Method: Multicellular complex tumor spheroid response to apoptosis pathway targeting inhibitors Alrizomadlin, Pelcitoclax, and Dasminapant in combination with a variety of drugs and investigational agents in selected tumor cell lines
The MDM2 inhibitor alrizomadlin, the Bcl-2/Bcl-xL inhibitor pelcitoclax, and the IAPs inhibitor dasminapant were evaluated both individually and in combination with standard of care and investigational anticancer small molecules within a complex spheroid model of solid tumors. . Complex spheroids include a stromal component modeled by human endothelial cells (HUVEC) and fibroblasts modeled by human mesenchymal stem cells (MSCs). The concentration ranges selected for each drug and investigational agent were based upon clinically achievable concentrations if the clinical Cmax of the agent was known.
Compounds. The drugs and investigational agents: alrizomadlin (APG-115; NSC831270), pelcitoclax (APG-1252; NSC835773), dasminapant (APG-1387;NSC834197), TAK-243 (NSC785004), copanlisib (NSC809693), olaparib (NSC753686), talazoparib (NSC767125), cobimetinib (NSC 768068), eltanexor (KPT-8602, NSC 794443), abemaciclib (NSC 768073), sotorasib (NSC818433), adagrasib (NSC 831453), MRTX-1133 (NSC 836407), Iadademestat (ORY1001, NSC 806812), and RMC-4630 (NSC839698), were obtained from the NCI Developmental Therapeutics Program Chemical Repository. The FDA-approved anticancer drug set is available from the Developmental Therapeutics Program at https://dtp.cancer.gov/organization/dscb/obtaining/available plates.htm. […] The stock solutions were prepared in dimethyl sulfoxide (DMSO, Sigma-Aldrich, St. Louis, MO, cat. D2650) at 800-fold the tested concentration and stored at -70 degrees C prior to their use. All drugs and investigational agents were tested over a range starting from a high concentration at or near the clinical Cmax and decreasing in half-log increments. If the clinical Cmax for an agent had not been determined, the highest concentration tested was 10 microM.
The patient-derived cancer (PDC) cell lines include five colon adenocarcinomas: 186277-243-T-J2-PDC, 616215-338-R-J1-PDC, 439559-082-T-J2-PDC, 463943-066-T-J2-PDC, and 519858-162-T-J1-PDC; three pancreatic carcinomas: 323965-272-R-J2-PDC, 521955-158-R6-J3-PDC, and 521955-158-R2-J5-PDC; two uterine sarcomas: 327498-152-R-J2-PDC and 993429-296-R-J1-PDC; two rhabdomyosarcomas: 755483-174-R-J1-PDC and 772245-204-R-J1-PDC; two soft tissue sarcomas: 126254-015-R-J1-PDC and 494315-158-R-J1-PDC; two malignant fibrous histiocytomas: 317291-083-R-J1-PDC and 596521-263-R-J1-PDC; two breast carcinomas: 171881-019-R-J1-PDC and 885512-296-R-J2-PDC; and one ovarian carcinoma: 6556581-035-R-J-PDC were obtained from the NCI PDMR, (https://pdmr.cancer.gov). The established cell lines HSSY-2 synovial sarcoma (RRID:CVCL 8719), SYO-1 synovial sarcoma (RRID:CVCL_7146), MPNST malignant peripheral neural sheath tumor were obtained from the Sloan Kettering Institute. The following established cell lines were purchased from the American Type Culture Collection (ATCC, Manassas, VA), Sor the received from the NCI repository:, PANC-1 pancreatic carcinoma (CRL-1469, RRID:CVCL_0480), OVCAR-5 ovarian carcinoma (RRID:CVCL_1628), OVCAR-8 ovarian carcinoma (RRID:CVCL_1629), , MCF-7 breast carcinoma (CRL-12584, RRID:CVCL_0031), MDA-MB-231 breast carcinoma (CRL-12532, RRID:CVCL_0062), NCI-H1876 small cell lung carcinoma (CRL-5902, RRID:CVCL_1503), NCI-H510A small cell lung carcinoma (HTB-184, RRID:CVCL_1565), NCI-H1417 (CRL-5869, RRID:CVCL_1469), and NCI-H196 small cell lung carcinoma (CRL-5823, RRID:CVCL_1509). Dr. Peter Houghton (Greehey Children's Cancer Research Institute, University of Texas Health Science Center, San Antonio, TX) provided Rh-18 rhabdomyosarcoma (RRID:CVCL_1659). Pooled donor human umbilical vein endothelial cells (HUVEC, Lonza, cat. CC-2519) and human mesenchymal stem cells (hMSC, Lonza, cat. PT-2501) were purchased from Lonza (Walkersville, MD).
Cell Culture. […]

[1] = compound alone, run of 11/07/2022
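Note: compound exposure lasted 7 days starting three days after spheroid seeding.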
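Throughout, for viability, T/C: 100% = DMSO vehicle control wells with viability set relative to vehicle.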

C#Cc1c(F)ccc2cc(O)cc(-c3ncc4c(N5CC6CCC(C5)N6)nc(OCC56CCCN5CC(F)C6)nc4c3F)c12 (stereo not given)
> 10000 nM: IC50 (curve of compound)
inactive: viability, T/C (compound 0.0316 µM) 105% and 94.4% and 104% | viability, T/C (compound 0.1 µM) 106% and 91.6% and 102% | viability, T/C (compound 0.316 µM) 103% and 107% and 98.3% | viability, T/C (compound 1 µM) 87.3% and 97.4% and 111% | viability, T/C (compound 3.16 µM) 67.9% and 75.1% and 76.7% | viability, T/C (compound 10 µM) 62.3% and 59.4% and 62.5%

C=C(F)C(=O)N1CCN(c2nc(OCC3CCCN3C)nc3c2CCN(c2cccc4cccc(Cl)c24)C3)CC1CC#N (stereo not given)
3550 nM and 4840 nM and 5670 nM: IC50 (curve of compound)
inactive: viability, T/C (compound 0.0316 µM) 56.9% and 67.8% and 73.2% | viability, T/C (compound 0.1 µM) 51.6% and 58.2% and 53.8% | viability, T/C (compound 0.316 µM) 47.7% and 60% and 57.1% | viability, T/C (compound 1 µM) 59% and 70.1% and 72.8% | viability, T/C (compound 3.16 µM) 61.5% and 76.8% and 82.5%

C=CC(=O)N1CCN(c2nc(=O)n(-c3c(C)ccnc3C(C)C)c3nc(-c4c(O)cccc4F)c(F)cc23)C(C)C1 (stereo not given)
inactive: viability, T/C (compound 0.0316 µM) 68.7% and 71.9% and 67.7% | viability, T/C (compound 0.1 µM) 56.3% and 59.3% and 71.6% | viability, T/C (compound 0.316 µM) 58.4% and 59% and 65.9% | viability, T/C (compound 1 µM) 57% and 64.3% and 67.5% | viability, T/C (compound 3.16 µM) 66.4% and 72.1% and 67.5% | viability, T/C (compound 10 µM) 64.8% and 65.6% and 61.1%
> 10000 nM: IC50 (curve of compound)

CCN1C(C(=O)NC23CCC(C(=O)O)(CC2)CC3)C(c2cccc(Cl)c2F)C2(C(=O)Nc3cc(Cl)ccc32)C12CCCCC2 (stereo not given)
> 3000 nM: IC50 [1] | IC50 (curve of compound)
inactive: viability, T/C (compound 0.00949 µM) 109% [middle of 9 runs] | viability, T/C (compound 0.03 µM) 105% [middle of 9 runs] | viability, T/C (compound 0.0949 µM) 104% [middle of 9 runs] | viability, T/C (compound 0.3 µM) 101% [middle of 9 runs] | viability, T/C (compound 0.949 µM) 110% [middle of 9 runs] | viability, T/C (compound 3 µM) 101% [middle of 9 runs]

CCN1CCN(Cc2ccc(Nc3ncc(F)c(-c4cc(F)c5nc(C)n(C(C)C)c5c4)n3)nc2)CC1
> 1000 nM: IC50 (curve of compound)
inactive: viability, T/C (compound 0.00316 µM) 114% and 101% and 112% | viability, T/C (compound 0.01 µM) 109% and 98.9% and 112% | viability, T/C (compound 0.0316 µM) 91.6% and 94.6% and 76.7% | viability, T/C (compound 0.1 µM) 75.6% and 84.4% and 76.1% | viability, T/C (compound 0.316 µM) 65.8% and 71.8% and 68% | viability, T/C (compound 1 µM) 67.9% and 74.1% and 82.3%

CNC(C)C(=O)NC1CN(S(=O)(=O)c2cccc(S(=O)(=O)N3CCC4CCC(C(=O)NC(c5ccccc5)c5ccccc5)N4C(=O)C(NC(=O)C(C)NC)C3)c2)CCC2CCC(C(=O)NC(c3ccccc3)c3ccccc3)N2C1=O (stereo not given)
> 1000 nM: IC50 (compound alone, run of 11/15/2022) | IC50 (curve of compound)
inactive: viability, T/C (compound 0.01 µM) 109% [middle of 9 runs] | viability, T/C (compound 0.1 µM) 106% [middle of 9 runs] | viability, T/C (compound 0.316 µM) 100% [middle of 9 runs]

COc1c(OCCCN2CCOCC2)ccc2c3n(c(=NC(=O)c4cnc(N)nc4)nc12)CCN3
inactive: viability, T/C (compound 0.00316 µM) 100% and 85.6% and 103% | viability, T/C (compound 0.01 µM) 99.3% and 80.7% and 93% | viability, T/C (compound 0.0316 µM) 79.6% and 65.5% and 71.6% | viability, T/C (compound 0.1 µM) 49.5% and 56.1% and 55.9% | viability, T/C (compound 0.316 µM) 32.8% and 41.2% and 33.7% | viability, T/C (compound 1 µM) 30.5% and 33.6% and 25.3%
154 nM and 119 nM and 92.1 nM: IC50 (curve of compound)

Cc1c(S(C)(=O)=O)c(-c2cc(F)cc(N3CCN(c4ccc(NS(=O)(=O)c5ccc(NC(CCN6CCC(C(=O)OCCCP(=O)(O)O)CC6)CSc6ccccc6)c(S(=O)(=O)C(F)(F)F)c5)cc4)CC3)c2)c(-c2ccc(Cl)cc2)n1C(C)C (stereo not given)
> 10000 nM: IC50 [1]
inactive: viability, T/C (compound 0.0316 µM) 107% [middle of 7 runs] | viability, T/C (compound 0.1 µM) 107% [middle of 7 runs] | viability, T/C (compound 0.316 µM) 98.3% [middle of 7 runs] | viability, T/C (compound 3.16 µM) 84.5% [middle of 7 runs] | viability, T/C (compound 10 µM) 76.9% [middle of 7 runs]

Cc1nc(N2CCC3(CC2)COC(C)C3N)c(CO)nc1Sc1ccnc(N)c1Cl (stereo not given)
2620 nM and 1920 nM and 2500 nM: IC50 (curve of compound)
inactive: viability, T/C (compound 0.00949 µM) 102% and 96% and 110% | viability, T/C (compound 0.03 µM) 83.6% and 82.4% and 93.1% | viability, T/C (compound 0.0949 µM) 78.5% and 71.7% and 79.6% | viability, T/C (compound 0.3 µM) 63.5% and 73.1% and 66% | viability, T/C (compound 0.949 µM) 54.4% (2×) and 55% | viability, T/C (compound 3 µM) 50.1% and 45.6% and 49.1%

Cn1ncnc1[C@H]1c2n[nH]c(=O)c3cc(F)cc(c23)N[C@@H]1c1ccc(F)cc1
inactive: viability, T/C (compound 0.000316 µM) 103% and 109% and 106% | viability, T/C (compound 0.001 µM) 96.5% and 103% and 99.3% | viability, T/C (compound 0.00316 µM) 103% and 104% and 99.2% | viability, T/C (compound 0.01 µM) 96.4% (2×) and 120% | viability, T/C (compound 0.0316 µM) 103% and 95.3% and 106% | viability, T/C (compound 0.1 µM) 89.7% and 95.6% and 94.9%
> 100 nM: IC50 (curve of compound)

NC(=O)C(=Cn1cnc(-c2cc(C(F)(F)F)cc(C(F)(F)F)c2)n1)c1cncnc1
inactive: viability, T/C (compound 0.000949 µM) 105% and 108% and 73.8% | viability, T/C (compound 0.003 µM) 91.3% and 106% and 96.3% | viability, T/C (compound 0.00949 µM) 101% and 105% and 88.4% | viability, T/C (compound 0.03 µM) 93.7% and 89% and 82.1% | viability, T/C (compound 0.0949 µM) 86.4% and 80.2% and 77.3% | viability, T/C (compound 0.3 µM) 57.8% and 57% and 75.2%
> 300 nM: IC50 (curve of compound)

NC1CCC(NC2CC2c2ccccc2)CC1 (stereo not given)
> 100 nM: IC50 (curve of compound)
inactive: viability, T/C (compound 0.000316 µM) 97.5% and 97% and 94.2% | viability, T/C (compound 0.001 µM) 105% and 97.8% and 90% | viability, T/C (compound 0.00316 µM) 102% and 98.4% and 89.8% | viability, T/C (compound 0.01 µM) 101% and 97.8% and 90.7% | viability, T/C (compound 0.0316 µM) 120% and 103% and 94% | viability, T/C (compound 0.1 µM) 110% and 90.2% and 92.5%

O=C(c1cc(Cc2n[nH]c(=O)c3ccccc23)ccc1F)N1CCN(C(=O)C2CC2)CC1
> 10000 nM: IC50 (curve of compound)
inactive: viability, T/C (compound 0.0316 µM) 105% and 66.7% and 98.1% | viability, T/C (compound 0.1 µM) 86.6% and 102% and 89.1% | viability, T/C (compound 0.316 µM) 101% and 116% and 79% | viability, T/C (compound 1 µM) 104% and 108% and 117% | viability, T/C (compound 3.16 µM) 98.2% and 110% and 94.2% | viability, T/C (compound 10 µM) 87.7% and 91.1% and 80.9%

O=C(c1ccc(F)c(F)c1Nc1ccc(I)cc1F)N1CC(O)([C@@H]2CCCCN2)C1
inactive: viability, T/C (compound 0.00316 µM) 106% and 101% and 88.5% | viability, T/C (compound 0.01 µM) 82.5% and 96.7% and 83.5% | viability, T/C (compound 0.0316 µM) 87% and 76.1% and 79% | viability, T/C (compound 0.1 µM) 62.9% and 59.7% and 52.5% | viability, T/C (compound 0.316 µM) 34.9% and 34.5% and 31.9% | viability, T/C (compound 1 µM) 19.6% and 20.1% and 18.8%
176 nM and 149 nM and 123 nM: IC50 (curve of compound)
